Assay results reported in ChEMBL document CHEMBL3046330, “Synthesis and biological activity of hydrazidehydrazones and their corresponding 3-acetyl-2,5-disubstituted-2,3-dihydro-1,3,4-oxadiazoles” (Med Chem Res, 2012).
≈ marks a conversion by molar mass, not a printed value. Calls of active or inactive are those of the source. The rule behind the calls is not given here.

Assays:
Transcription factor Sp1 = Transcription factor Sp1 (Homo sapiens, UniProt P08047); experiment: Inhibition of Sp1 (unknown origin) up to 25 ug/ml by luciferase reporter gene assay
Sequence of Transcription factor Sp1 (P08047 whole entry): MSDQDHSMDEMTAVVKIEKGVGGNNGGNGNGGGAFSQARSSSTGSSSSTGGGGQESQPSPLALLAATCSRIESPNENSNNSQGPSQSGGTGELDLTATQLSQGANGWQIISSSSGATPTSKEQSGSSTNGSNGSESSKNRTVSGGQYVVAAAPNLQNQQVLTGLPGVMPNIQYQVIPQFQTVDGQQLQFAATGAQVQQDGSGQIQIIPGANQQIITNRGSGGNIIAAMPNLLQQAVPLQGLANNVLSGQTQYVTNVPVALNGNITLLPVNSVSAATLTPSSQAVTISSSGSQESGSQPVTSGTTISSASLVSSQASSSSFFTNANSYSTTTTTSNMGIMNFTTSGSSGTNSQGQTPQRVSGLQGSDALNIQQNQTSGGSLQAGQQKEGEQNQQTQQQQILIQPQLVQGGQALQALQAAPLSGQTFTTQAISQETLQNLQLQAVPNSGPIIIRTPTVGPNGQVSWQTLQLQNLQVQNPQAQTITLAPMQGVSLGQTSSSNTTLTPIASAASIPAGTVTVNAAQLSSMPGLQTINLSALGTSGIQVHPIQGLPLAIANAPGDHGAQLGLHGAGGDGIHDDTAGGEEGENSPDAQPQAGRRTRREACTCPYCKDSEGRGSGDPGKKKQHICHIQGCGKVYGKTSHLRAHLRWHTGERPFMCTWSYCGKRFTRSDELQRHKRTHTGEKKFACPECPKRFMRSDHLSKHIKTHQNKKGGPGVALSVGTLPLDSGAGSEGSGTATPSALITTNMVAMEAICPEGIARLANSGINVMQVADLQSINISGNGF

Botrytis cinerea = experiment: Antifungal activity against Botryotinia fuckeliana at 0.3 to 30 uM after 48 to 72 hr by broth microdilution method; assay type: functional, organism-based
Colletotrichum fragariae = experiment: Antifungal activity against Colletotrichum fragariae at 0.3 to 30 uM after 48 to 72 hr by broth microdilution method; assay type: functional, organism-based
SK-MEL = experiment: Cytotoxicity against Homo sapiens (human) SK-MEL cells assessed as cell viability up to 25 ug/ml after 48 hr by neutral red assay; assay type: functional, cell-based
Cyberlindnera jadinii = experiment: Antifungal activity against Cyberlindnera jadinii NRRL Y-900 after 24 hr by NCCLS broth microdilution method; assay type: functional; settings: Williopsis jadinii, NRRL Y-900, 24 h
Candida tropicalis [1] = experiment: Antifungal activity against Candida tropicalis NRRL Y-12968 after 24 hr by NCCLS broth microdilution method; assay type: functional; settings: NRRL Y-12968, 24 h
Candida albicans [2] = experiment: Antifungal activity against Candida albicans clinical isolate after 24 hr by NCCLS broth microdilution method; assay type: functional
Candida tropicalis [3] = experiment: Antifungal activity against Candida tropicalis NRRL Y-12968 at 2000 ug/ml by agar diffusion method; assay type: functional; settings: read-out: IZ
Candida albicans [4] = experiment: Antifungal activity against Candida albicans ATCC 90028 after 24 hr by NCCLS broth microdilution method; assay type: functional; settings: ATCC 90028, 24 h
SK-OV-3 = experiment: Cytotoxicity against Homo sapiens (human) SKOV3 cells assessed as cell viability up to 25 ug/ml after 48 hr by neutral red assay; assay type: functional, cell-based
Candida parapsilosis = experiment: Antifungal activity against Candida parapsilosis NRRL Y-12696 after 24 hr by NCCLS broth microdilution method; assay type: functional; settings: Lodderomyces parapsilosis, NRRL Y-12696, 24 h
Pichia kudriavzevii = experiment: Antifungal activity against Pichia kudriavzevii NRRL Y-7179 after 24 hr by NCCLS broth microdilution method; assay type: functional; settings: NRRL Y-7179, 24 h
HL-60 [5] = experiment: Antioxidant activity in PMA-stimulated Homo sapiens (human) HL60 cells assessed as inhibition of intracellular ROS generation up to 25 ug/ml incubated for 30 min prior to PMA stimulation measured after 30 min by DCFH-DA assay relative to vehicle-treated control; assay type: functional, cell-based
KB = experiment: Cytotoxicity against Homo sapiens (human) KB cells assessed as cell viability up to 25 ug/ml after 48 hr by neutral red assay; assay type: functional, cell-based
Nakaseomyces glabratus = experiment: Antifungal activity against Candida glabrata clinical isolate after 24 hr by NCCLS broth microdilution method; assay type: functional
HL-60 [6] = experiment: Cytotoxicity against Homo sapiens (human) HL60 cells; assay type: cell-based
Diaporthe ampelina = experiment: Antifungal activity against Diaporthe ampelina assessed as growth inhibition at 30 uM after 144 hr by broth microdilution method; assay type: functional; settings: read-out: GI
Candida albicans [7] = experiment: Antifungal activity against Candida albicans clinical isolate at 2000 ug/ml by agar diffusion method; assay type: functional; settings: read-out: IZ
Fusarium oxysporum = experiment: Antifungal activity against Fusarium oxysporum assessed as growth inhibition at 30 uM after 72 hr by broth microdilution method; assay type: functional; settings: read-out: GI
RAW264.7 = experiment: Cytotoxicity against Mus musculus (mouse) RAW264.7 cells up to 25 ug/ml; assay type: cell-based
Candida albicans [8] = experiment: Antifungal activity against Candida albicans NRRL Y-12983 after 24 hr by NCCLS broth microdilution method; assay type: functional; settings: NRRL Y-12983, 24 h
Vero = experiment: Cytotoxicity against Chlorocebus aethiops (African green monkey) Vero cells assessed as cell viability up to 25 ug/ml after 48 hr by neutral red assay; assay type: cell-based; settings: chlorocebus sabaeus
[9] = Cytotoxicity against Sus scrofa (pig) LLC-PK11 cells assessed as cell viability up to 25 ug/ml after 48 hr by neutral red assay; assay type: cell-based; settings: llc-pk11, 48 h
BT-549 = experiment: Cytotoxicity against Homo sapiens (human) BT549 cells assessed as cell viability up to 25 ug/ml after 48 hr by neutral red assay; assay type: functional, cell-based
SW1353 = experiment: Inhibition of PMA-induced NFkappaB activity in Homo sapiens (human) SW1353 cells up to 25 ug/ml incubated for 30 min followed by PMA induction for 8 hr by luciferase reporter gene assay; assay type: cell-based
[10] = molecular target: T1, Nitric oxide synthase, inducible (Mus musculus, UniProt P29477); experiment: Inhibition of iNOS in Mus musculus (mouse) RAW264.7 cells assessed as inhibition of LPS-induced nitrite production incubated for 30 min prior to LPS challenge measured after 24 hr by Griess assay; assay type: cell-based
T1 sequence (P29477 whole entry): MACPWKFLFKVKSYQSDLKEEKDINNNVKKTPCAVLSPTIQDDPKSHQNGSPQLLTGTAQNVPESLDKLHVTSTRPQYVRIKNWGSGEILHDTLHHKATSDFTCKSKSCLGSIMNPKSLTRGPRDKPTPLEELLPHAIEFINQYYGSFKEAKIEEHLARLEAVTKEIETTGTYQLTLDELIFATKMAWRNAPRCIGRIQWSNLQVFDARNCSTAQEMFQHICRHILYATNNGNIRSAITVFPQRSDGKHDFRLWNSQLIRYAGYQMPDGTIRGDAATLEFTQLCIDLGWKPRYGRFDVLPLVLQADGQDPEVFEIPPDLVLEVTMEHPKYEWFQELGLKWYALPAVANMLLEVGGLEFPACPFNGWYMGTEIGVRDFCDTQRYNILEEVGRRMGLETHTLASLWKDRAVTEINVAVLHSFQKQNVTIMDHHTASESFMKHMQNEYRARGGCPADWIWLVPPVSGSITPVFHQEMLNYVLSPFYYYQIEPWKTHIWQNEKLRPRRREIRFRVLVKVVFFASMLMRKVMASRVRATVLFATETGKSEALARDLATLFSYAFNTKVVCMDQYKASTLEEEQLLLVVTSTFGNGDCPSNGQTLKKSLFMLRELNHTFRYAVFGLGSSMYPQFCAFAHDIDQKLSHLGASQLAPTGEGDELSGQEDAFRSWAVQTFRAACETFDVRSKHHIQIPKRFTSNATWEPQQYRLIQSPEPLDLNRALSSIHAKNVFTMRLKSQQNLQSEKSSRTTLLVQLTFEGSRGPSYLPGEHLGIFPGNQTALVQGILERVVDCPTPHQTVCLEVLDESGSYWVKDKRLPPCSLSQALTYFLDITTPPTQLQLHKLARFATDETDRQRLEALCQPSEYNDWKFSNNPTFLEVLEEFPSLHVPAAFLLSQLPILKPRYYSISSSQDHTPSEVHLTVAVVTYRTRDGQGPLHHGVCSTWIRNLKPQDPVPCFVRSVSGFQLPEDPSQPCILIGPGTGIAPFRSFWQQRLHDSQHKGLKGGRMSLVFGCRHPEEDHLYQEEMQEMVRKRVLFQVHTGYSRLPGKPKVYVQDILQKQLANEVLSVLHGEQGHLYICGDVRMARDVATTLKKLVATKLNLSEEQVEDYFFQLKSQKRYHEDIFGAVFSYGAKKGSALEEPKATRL

[11] = system: Colletotrichum gloeosporioides; experiment: Antifungal activity against Colletotrichum gloeosporioides assessed as growth inhibition at 30 uM after 72 hr by broth microdilution method; assay type: functional; settings: read-out: GI
[12] = molecular target: T2, Nitric oxide synthase, inducible (Mus musculus) (UniProt P29477); experiment: Inhibition of iNOS in Mus musculus (mouse) RAW264.7 cells assessed as inhibition of LPS-induced nitrite production up to 25 ug/ml incubated for 30 min prior to LPS challenge measured after 24 hr by Griess assay relative to vehicle-treated control; assay type: cell-based
T2 sequence (whole entry): T1 sequence (P29477 whole entry)

Phomopsis obscurans = experiment: Antifungal activity against Phomopsis obscurans assessed as growth inhibition at 30 uM after 144 hr by broth microdilution method; assay type: functional; settings: Paraphomopsis obscurans, read-out: GI
Colletotrichum acutatum = experiment: Antifungal activity against Colletotrichum acutatum assessed as growth inhibition at 30 uM after 72 hr by broth microdilution method; assay type: functional; settings: read-out: GI

| SMILES | inhibition (INH) (Transcription factor Sp1) | Activity (Botrytis cinerea) | Activity (Colletotrichum fragariae) | Activity (SK-MEL) | MIC (Cyberlindnera jadinii) [µg/mL] | MIC (Candida tropicalis [1]) [µg/mL] | MIC (Candida albicans [2]) [µg/mL] | zone of inhibition at 2000 µg/mL (Candida tropicalis [3]) [mm] | MIC (Candida albicans [4]) [µg/mL] | Activity (SK-OV-3) | MIC (Candida parapsilosis) [µg/mL] | MIC (Pichia kudriavzevii) [µg/mL] | inhibition (HL-60 [5]) | Activity (KB) | MIC (Nakaseomyces glabratus) [µg/mL] | IC50 (HL-60 [6]) [µg/mL] | zone of inhibition at 2000 µg/mL (Candida albicans [7]) [mm] | inhibition of growth at 30 µM (Fusarium oxysporum) [%] | Activity (RAW264.7) | MIC (Candida albicans [8]) [µg/mL] | other results |
| --- | --- | --- | --- | --- | --- | --- | --- | --- | --- | --- | --- | --- | --- | --- | --- | --- | --- | --- | --- | --- | --- |
| O=C(N/N=C/c1ccc(Br)s1)c1ccc(F)cc1 | Not Active | inactive | inactive | inactive | 250 (≈ 764 µM) | 250 (≈ 764 µM) | 250 (≈ 764 µM) | 9 | 250 (≈ 764 µM) | inactive | 250 (≈ 764 µM) | 250 (≈ 764 µM) | inactive | inactive | 250 (≈ 764 µM) | 16 (≈ 48.9 µM) | 9 | 40 | Non-toxic | 125 (≈ 382 µM) | inhibition of growth at 30 µM (Diaporthe ampelina): 91%; Activity (Vero): Not Active; Activity [9]: Not Active; Activity (BT-549): inactive; inhibition (SW1353): inactive; IC50 [10]: > 76.4 µM; inhibition of growth at 30 µM [11]: 32% |
| CC(=O)N1N=C(c2ccc(F)cc2)OC1c1ccc(Br)s1 (stereo not given) | Not Active | inactive | inactive | inactive | > 1000 | > 1000 | > 1000 | 9 | > 1000 | inactive | > 1000 | > 1000 | inactive | inactive | > 1000 | 5.9 (≈ 16 µM) | 9 | 67 | Non-toxic | > 1000 | inhibition [12]: inactive; inhibition of growth at 30 µM (Phomopsis obscurans): 65%; inhibition of growth at 30 µM (Colletotrichum acutatum): 49%; Activity (Vero): Not Active; Activity [9]: Not Active; Activity (BT-549): inactive; inhibition (SW1353): inactive; inhibition of growth at 30 µM [11]: 66% |
